Measured values published in ChEMBL document CHEMBL5465560, “Selectivity Literature for EUbOPEN Chemogenomic Library” (2024).

What was measured:
[1] = biological target: T1, Histone-lysine N-methyltransferase NSD3 (Homo sapiens) (UniProt Q9BZ95); assay: Selectivity interaction (Methyltransferase screen (radiometric assays, panel of 8 PRMTs, 21 protein lysine methyltransferases, 3 DNA methyltransferases, and one RNA methyltransferase)) EUB0000272b NSD3
T1 sequence (whole entry): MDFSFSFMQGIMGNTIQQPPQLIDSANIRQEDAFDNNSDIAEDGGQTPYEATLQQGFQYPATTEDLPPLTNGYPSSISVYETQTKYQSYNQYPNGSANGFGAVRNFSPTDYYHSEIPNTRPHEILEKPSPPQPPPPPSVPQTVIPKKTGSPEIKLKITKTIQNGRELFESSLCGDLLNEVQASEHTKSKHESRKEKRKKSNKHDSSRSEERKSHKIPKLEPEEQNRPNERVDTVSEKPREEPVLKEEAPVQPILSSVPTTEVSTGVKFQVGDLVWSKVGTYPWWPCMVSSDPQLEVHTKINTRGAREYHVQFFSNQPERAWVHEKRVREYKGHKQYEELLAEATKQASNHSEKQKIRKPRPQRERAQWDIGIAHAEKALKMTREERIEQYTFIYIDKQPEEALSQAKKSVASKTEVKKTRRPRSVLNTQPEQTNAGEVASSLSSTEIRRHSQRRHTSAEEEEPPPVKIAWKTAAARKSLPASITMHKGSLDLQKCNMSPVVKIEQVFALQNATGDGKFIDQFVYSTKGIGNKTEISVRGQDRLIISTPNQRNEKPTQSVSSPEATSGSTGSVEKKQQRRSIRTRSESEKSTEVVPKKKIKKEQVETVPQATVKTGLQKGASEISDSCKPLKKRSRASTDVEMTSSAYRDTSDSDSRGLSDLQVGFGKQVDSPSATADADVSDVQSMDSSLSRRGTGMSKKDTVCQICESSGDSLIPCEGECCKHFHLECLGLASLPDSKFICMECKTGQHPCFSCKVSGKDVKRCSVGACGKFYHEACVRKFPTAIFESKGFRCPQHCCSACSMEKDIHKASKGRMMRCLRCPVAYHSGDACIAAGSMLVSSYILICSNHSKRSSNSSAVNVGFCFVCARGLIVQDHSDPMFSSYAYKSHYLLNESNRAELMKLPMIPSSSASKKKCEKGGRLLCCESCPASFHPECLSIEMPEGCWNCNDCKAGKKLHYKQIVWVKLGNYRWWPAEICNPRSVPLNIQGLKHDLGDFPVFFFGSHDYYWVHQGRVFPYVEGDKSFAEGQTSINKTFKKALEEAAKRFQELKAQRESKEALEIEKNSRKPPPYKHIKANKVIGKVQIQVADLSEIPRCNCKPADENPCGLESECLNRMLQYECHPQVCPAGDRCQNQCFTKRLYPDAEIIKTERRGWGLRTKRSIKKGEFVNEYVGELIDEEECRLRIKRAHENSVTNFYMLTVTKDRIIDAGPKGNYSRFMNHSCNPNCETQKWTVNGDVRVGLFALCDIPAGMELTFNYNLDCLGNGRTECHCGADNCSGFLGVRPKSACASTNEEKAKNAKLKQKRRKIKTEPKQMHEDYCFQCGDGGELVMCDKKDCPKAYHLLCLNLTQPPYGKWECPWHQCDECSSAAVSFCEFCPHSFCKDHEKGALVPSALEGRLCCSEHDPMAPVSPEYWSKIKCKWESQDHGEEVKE

[2] = biological target: Death-associated protein kinase 3 (Homo sapiens) (UniProt O43293); assay: Selectivity interaction (KinomeScan (DiscoverX)) EUB0000092b DAPK3; conditions: at 10 µM
[3] = biological target: Serine/threonine-protein kinase 38 (Homo sapiens) (UniProt Q15208); assay: Selectivity interaction (Kinase panel (KiNativ target engagement assay in Jurkat cells)) EUB0001635a STK38; format: cell-based; conditions: Selectivity number of off-targets 0.0, Selectivity number of targets 233.0, Source Knowledge https://www.sciencedirect.com/science/article/pii/S2451945619300674?via%3Dihub, at 1 µM
[4] = biological target: T2, Mitogen-activated protein kinase kinase kinase 7 (Homo sapiens) (UniProt O43318); assay: Selectivity interaction (KinomeScan (DiscoverX)) EUB0001049a MAP3K7; conditions: at 1 µM
T2 sequence (whole entry): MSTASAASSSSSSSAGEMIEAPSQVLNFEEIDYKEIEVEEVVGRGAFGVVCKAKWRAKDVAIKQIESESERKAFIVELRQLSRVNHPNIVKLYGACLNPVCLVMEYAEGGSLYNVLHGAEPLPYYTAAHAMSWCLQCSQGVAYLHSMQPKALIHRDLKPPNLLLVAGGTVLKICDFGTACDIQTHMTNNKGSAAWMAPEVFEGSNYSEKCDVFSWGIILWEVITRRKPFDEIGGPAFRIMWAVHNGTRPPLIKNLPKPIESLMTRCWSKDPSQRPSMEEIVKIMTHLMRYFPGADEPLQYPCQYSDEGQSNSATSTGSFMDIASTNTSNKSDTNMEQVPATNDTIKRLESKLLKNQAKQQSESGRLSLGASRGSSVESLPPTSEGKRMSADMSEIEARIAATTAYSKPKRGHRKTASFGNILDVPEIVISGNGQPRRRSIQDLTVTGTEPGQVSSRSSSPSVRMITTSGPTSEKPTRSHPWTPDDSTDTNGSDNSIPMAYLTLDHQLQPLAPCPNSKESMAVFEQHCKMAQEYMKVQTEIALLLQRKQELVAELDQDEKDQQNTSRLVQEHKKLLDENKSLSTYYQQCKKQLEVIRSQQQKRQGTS

[5] = biological target: Platelet-derived growth factor receptor alpha (Homo sapiens, UniProt P16234); assay: Selectivity interaction (KinomeScan (DiscoverX)) EUB0001619a PDGFRA; conditions: at 1 µM
Sequence of Platelet-derived growth factor receptor alpha (P16234 whole entry): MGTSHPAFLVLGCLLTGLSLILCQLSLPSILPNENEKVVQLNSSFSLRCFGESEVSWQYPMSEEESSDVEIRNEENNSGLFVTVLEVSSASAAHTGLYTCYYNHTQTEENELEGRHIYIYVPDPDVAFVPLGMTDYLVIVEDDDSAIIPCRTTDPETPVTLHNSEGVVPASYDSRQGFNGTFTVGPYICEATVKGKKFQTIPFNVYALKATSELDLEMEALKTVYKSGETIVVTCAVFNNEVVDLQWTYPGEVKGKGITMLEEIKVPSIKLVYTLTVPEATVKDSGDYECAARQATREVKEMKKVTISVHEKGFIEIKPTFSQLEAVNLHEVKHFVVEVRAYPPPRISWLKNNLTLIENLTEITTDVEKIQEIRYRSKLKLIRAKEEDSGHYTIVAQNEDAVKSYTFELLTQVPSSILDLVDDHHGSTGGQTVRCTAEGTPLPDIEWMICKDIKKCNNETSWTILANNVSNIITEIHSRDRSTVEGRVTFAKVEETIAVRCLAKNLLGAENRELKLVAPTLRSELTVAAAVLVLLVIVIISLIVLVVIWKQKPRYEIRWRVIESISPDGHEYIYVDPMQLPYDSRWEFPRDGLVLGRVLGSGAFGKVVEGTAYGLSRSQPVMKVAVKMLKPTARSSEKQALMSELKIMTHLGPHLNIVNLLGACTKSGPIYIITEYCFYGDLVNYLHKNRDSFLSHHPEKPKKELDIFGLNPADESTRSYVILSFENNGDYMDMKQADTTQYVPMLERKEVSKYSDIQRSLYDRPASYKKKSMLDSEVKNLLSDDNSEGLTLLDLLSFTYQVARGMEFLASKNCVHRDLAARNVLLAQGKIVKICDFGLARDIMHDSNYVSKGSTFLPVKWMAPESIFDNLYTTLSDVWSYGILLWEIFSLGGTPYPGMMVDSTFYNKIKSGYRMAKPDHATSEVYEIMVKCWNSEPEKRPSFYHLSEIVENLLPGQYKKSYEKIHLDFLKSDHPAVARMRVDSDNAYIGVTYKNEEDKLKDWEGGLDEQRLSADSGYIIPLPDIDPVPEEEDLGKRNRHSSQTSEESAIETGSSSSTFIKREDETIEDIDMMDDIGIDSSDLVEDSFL

Sequence of Death-associated protein kinase 3 (Homo sapiens) (O43293 whole entry, looked up): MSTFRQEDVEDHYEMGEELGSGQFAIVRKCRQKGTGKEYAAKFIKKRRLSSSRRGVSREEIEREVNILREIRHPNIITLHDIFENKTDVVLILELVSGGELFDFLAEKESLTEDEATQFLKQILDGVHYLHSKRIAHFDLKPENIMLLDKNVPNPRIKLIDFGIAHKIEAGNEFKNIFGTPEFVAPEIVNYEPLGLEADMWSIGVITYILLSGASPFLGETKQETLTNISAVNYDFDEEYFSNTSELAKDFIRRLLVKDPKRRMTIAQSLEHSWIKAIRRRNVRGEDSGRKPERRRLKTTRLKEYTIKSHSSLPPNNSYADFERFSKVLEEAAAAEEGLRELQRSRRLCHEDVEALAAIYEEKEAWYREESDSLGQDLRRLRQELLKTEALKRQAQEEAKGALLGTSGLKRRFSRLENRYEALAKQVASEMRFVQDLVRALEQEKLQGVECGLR
Sequence of Serine/threonine-protein kinase 38 (Homo sapiens) (Q15208 2-465 limits assumed): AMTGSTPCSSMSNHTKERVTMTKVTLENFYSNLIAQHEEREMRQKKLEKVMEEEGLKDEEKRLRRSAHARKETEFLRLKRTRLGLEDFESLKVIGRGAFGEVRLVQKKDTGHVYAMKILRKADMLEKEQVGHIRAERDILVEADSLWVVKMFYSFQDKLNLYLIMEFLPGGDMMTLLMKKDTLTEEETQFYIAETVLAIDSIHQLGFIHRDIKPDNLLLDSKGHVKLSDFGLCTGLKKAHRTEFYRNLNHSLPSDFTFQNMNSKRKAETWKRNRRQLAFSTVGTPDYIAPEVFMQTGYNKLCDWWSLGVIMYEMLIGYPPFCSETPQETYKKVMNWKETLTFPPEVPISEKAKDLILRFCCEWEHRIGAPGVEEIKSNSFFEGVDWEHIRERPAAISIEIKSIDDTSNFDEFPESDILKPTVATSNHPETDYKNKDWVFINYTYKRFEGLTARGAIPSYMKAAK

For `Cc1cc(C)cc([C@H]2c3cc(C)ccc3NC(=O)CN2C(=O)c2ccc(Br)s2)c1`, the % of activity ([1]; at 1 µM) was 104% and the % of activity ([1]; at 10 µM) was 99%.
`CCC(=O)N1CCN(c2ccc(-n3c(=O)ccc4cnc5ccc(-c6cnc7ccccc7c6)cc5c43)cc2C(F)(F)F)CC1` gave a % of control [2] of 82%.
`C=CC(=O)Nc1ccc(C(=O)Nc2[nH]nc3c2CN(C(=O)N[C@H](CN(C)C)c2ccccc2)C3(C)C)cc1` was tested, and the % of engagement [3] was 0.3%.
`COc1cc(Nc2nc(C)cc(-c3cnn4nc(OC)ccc34)n2)cc(C(F)(F)F)c1` was tested, and the % of control [4] was 73%.
For `N#Cc1cccc(-c2c[nH]c3ncnc(N4CCOCC4)c23)c1`, the % of control [5] was 100%.
